Assay results taken from patent US12364694B2 (priority 2018, dated 2025).

Tests used:
[1] = target: T1, dopamine D1 receptor (Homo sapiens, UniProt P21728); assay: Radioligand binding assay, human recombinant receptor in CHO cells; details: read-out: % Inhibition (mean) of control specific binding
T1 construct: expressed in transfected cells; host or cells: CHO

[2] = target: T2, dopamine D2S receptor (Homo sapiens, UniProt P14416); assay: Radioligand binding assay, human recombinant receptor in HEK cells; details: read-out: % Inhibition (mean) of control specific binding
T2 construct: expressed in transfected cells; host or cells: HEK-293
T2 sequence (P14416 1-414 isoform P14416-2): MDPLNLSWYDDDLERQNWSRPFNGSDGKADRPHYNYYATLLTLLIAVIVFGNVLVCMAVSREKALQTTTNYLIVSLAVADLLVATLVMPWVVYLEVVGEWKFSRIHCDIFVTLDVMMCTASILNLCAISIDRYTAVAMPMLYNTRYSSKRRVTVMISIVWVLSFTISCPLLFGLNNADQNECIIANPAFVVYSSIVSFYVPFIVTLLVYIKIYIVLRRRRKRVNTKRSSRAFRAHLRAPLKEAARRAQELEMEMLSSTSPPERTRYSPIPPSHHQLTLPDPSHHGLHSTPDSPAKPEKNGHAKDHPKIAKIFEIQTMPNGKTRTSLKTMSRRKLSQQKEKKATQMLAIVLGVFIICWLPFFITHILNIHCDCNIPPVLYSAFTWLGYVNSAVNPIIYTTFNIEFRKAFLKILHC

[3] = target: T3, serotonin 5-HT2A receptor (Homo sapiens, UniProt P28223); assay: as above; details: read-out: % Inhibition (mean) of control specific binding
T3 construct: expressed in transfected cells; host or cells: HEK-293
T3 sequence (P28223 whole entry): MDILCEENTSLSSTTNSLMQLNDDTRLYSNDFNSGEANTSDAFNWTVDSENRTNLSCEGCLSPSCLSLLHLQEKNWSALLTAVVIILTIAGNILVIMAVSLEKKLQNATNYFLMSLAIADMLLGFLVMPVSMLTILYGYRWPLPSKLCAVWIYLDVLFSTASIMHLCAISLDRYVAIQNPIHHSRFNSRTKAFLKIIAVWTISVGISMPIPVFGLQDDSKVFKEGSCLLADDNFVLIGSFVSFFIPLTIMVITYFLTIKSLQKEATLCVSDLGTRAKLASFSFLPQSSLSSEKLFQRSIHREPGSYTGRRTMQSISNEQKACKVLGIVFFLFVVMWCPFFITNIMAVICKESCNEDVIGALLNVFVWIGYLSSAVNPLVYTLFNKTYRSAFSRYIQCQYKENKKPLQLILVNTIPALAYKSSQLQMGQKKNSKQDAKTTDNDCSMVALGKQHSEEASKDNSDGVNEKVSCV

[4] = target: T4, serotonin transporter (SERT) (Homo sapiens, UniProt P31645); assay: Radioligand binding assay, human recombinant transporter in CHO cells; details: read-out: % Inhibition (mean) of control specific binding
T4 construct: expressed in transfected cells; host or cells: CHO
T4 sequence (P31645 whole entry): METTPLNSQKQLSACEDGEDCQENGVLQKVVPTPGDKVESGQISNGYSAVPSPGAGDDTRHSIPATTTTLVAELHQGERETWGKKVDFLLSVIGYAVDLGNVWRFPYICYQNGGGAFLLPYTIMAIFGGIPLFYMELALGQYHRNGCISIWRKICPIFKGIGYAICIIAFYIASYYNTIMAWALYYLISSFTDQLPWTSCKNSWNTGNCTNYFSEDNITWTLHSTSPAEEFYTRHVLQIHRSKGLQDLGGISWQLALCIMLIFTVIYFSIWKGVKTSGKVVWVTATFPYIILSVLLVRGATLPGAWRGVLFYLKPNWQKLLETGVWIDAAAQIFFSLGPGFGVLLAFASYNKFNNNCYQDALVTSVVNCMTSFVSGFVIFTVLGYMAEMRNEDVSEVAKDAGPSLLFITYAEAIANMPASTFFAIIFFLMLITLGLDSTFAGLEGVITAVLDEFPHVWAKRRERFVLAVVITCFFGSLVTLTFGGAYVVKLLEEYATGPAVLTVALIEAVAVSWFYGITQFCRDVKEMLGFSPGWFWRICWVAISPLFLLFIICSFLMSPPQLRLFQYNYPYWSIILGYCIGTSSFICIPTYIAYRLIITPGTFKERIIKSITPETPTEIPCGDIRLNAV

[5] = rat, in vivo, po, 10 mg/kg
[6] = in vivo; details: rat
[7] = test system: mouse formalin paw test; details: subcutaneous paw pre-treatment 30 minutes prior to […] formalin, three doses; cited from earlier work
[8] = target: serotonin 5-HT2 receptor family; details: mice, oral dosing, subcutaneous DOI; cited from earlier work
[9] = test system: protein phosphorylation (ERK1, ERK2, Glul, NR2B and TH) in mice nucleus accumbens; details: cited from earlier work
[10] = test system: mouse marble-burying model for OCD; details: positive control, after 30 minutes; cited from earlier work
[11] = test system: male Sprague-Dawley rats; details: cited from earlier work; for tolerance during repeated dosing: subcutaneous dosing for 28 days, 0.3 and 3 mg/kg; for physical dependence upon cessation of dosing: withdrawal after 28 days subcutaneous dosing

T1 sequence (P21728 whole entry): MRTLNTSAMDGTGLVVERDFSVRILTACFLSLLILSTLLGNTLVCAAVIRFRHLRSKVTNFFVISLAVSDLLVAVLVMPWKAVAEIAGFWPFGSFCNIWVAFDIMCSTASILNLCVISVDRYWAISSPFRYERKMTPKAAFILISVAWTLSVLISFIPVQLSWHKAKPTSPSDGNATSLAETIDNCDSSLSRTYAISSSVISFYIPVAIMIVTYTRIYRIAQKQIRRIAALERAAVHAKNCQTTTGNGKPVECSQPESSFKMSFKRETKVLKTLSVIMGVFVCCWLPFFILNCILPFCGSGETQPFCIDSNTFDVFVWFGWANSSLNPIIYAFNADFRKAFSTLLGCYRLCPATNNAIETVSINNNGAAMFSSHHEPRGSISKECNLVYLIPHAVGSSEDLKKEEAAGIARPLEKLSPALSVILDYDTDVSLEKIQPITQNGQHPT

Compound: [2H]C1([2H])C(=O)Nc2cccc3c2N1[C@H]1CCN(CCCOc2ccc(F)cc2)C[C@@H]31 [Example 1, (6bR,10aS)-1,1-d2-8-(3-(4-fluorophenoxy)propyl)-6b,7,8,9,10,10a-hexahydro-1H-pyrido[3′,4′:4,5]pyrrolo[1,2,3-de]quinoxalin-2(3H)-one]
- inhibition at 0.1 µM [1]: 36.6%
- inhibition at 0.3 µM [2]: 47.5%
- inhibition at 0.01 µM [3]: 64.7%
- inhibition at 1 µM [4]: 34.5%

Compound: [2H]C([2H])(Oc1ccc(F)cc1)C([2H])([2H])C([2H])([2H])N1CC[C@H]2[C@@H](C1)c1cccc3c1N2CC(=O)N3 [Example 2, (6bR,10aS)-8-(1,1,2,2,3,3-d6-3-(4-fluorophenoxy)propyl)-6b,7,8,9,10,10a-hexahydro-1H-pyrido[3′,4′: 4,5]pyrrolo[1,2,3-de]quinoxalin-2(3H)-one]
- plasma concentration [5]: BLQ
- AUC ([6]; po, 10 mg/kg): 3660 ng·h/mL
- Cmax ([6]; po, 10 mg/kg): 64.6 ng/mL
- Tmax ([6]; po, 10 mg/kg): 6 h
- concentration at 0.033 h ([6]; po, 10 mg/kg): 1 ng/mL
- concentration at 0.083 h ([6]; po, 10 mg/kg): 10.6 ng/mL
- concentration at 0.5 h ([6]; po, 10 mg/kg): 55.7 ng/mL
- concentration at 1 h ([6]; po, 10 mg/kg): 72.3 ng/mL
- concentration at 2 h ([6]; po, 10 mg/kg): 143 ng/mL
- concentration at 6 h ([6]; po, 10 mg/kg): 260 ng/mL
- concentration at 8 h ([6]; po, 10 mg/kg): 200 ng/mL
- concentration at 12 h ([6]; po, 10 mg/kg): 196 ng/mL
- concentration at 24 h ([6]; po, 10 mg/kg): 3 ng/mL
- concentration at […] ([6]; po, 10 mg/kg): 56.9 ng/mL
- AUC ([6]; sc, 3 mg/kg): 492 ng·h/mL
- Cmax ([6]; sc, 3 mg/kg): 81.4 ng/mL
- Tmax ([6]; sc, 3 mg/kg): 1 h
- concentration at 0.033 h ([6]; sc, 3 mg/kg): 6 ng/mL
- concentration at 0.083 h ([6]; sc, 3 mg/kg): 27.5 ng/mL
- concentration at 0.5 h ([6]; sc, 3 mg/kg): 80 ng/mL
- concentration at 1 h ([6]; sc, 3 mg/kg): 81.4 ng/mL
- concentration at 2 h ([6]; sc, 3 mg/kg): 65.2 ng/mL
- concentration at 6 h ([6]; sc, 3 mg/kg): 15 ng/mL
- concentration at 8 h ([6]; sc, 3 mg/kg): 6.7 ng/mL
- concentration at 12 h ([6]; sc, 3 mg/kg): 3.9 ng/mL
- concentration at 24 h ([6]; sc, 3 mg/kg): 2.1 ng/mL
- concentration at 48 h ([6]; sc, 3 mg/kg): 2 ng/mL
- concentration at 72 h ([6]; sc, 3 mg/kg): 1 ng/mL
- concentration at […] ([6]; sc, 3 mg/kg): 48.2 ng/mL

Compound: [2H]C([2H])(CC([2H])([2H])N1CC[C@H]2[C@@H](C1)c1cccc3c1N2CC(=O)N3)Oc1ccc(F)cc1 [Example 3, (6bR,10aS)-8-(1,1,3,3-d4-3-(4-fluorophenoxy)propyl)-6b,7,8,9,10,10a-hexahydro-1H-pyrido[3′,4′:4,5]pyrrolo[1,2,3-de]quinoxalin-2(3H)-one]
- inhibition at 0.1 µM [1]: 36.3%
- inhibition at 0.3 µM [2]: 55.1%
- inhibition at 0.01 µM [3]: 64.1%
- inhibition at 1 µM [4]: 31.8%

Compound: [2H]c1c([2H])c(OCCCN2CC[C@H]3[C@@H](C2)c2cccc4c2N3CC(=O)N4)c([2H])c([2H])c1F [Example 6, (6bR,10aS)-8-(3-(2,3,5,6-tetradeuterio-4-fluorophenoxy)propyl)-6b,7,8,9,10,10a-hexahydro-1H-pyrido[3′,4′:4,5]pyrrolo[1,2,3-de]quinoxalin-2(3H)-one]
- inhibition at 0.1 µM [1]: 32.6%
- inhibition at 0.3 µM [2]: 48.7%
- inhibition at 0.01 µM [3]: 60.2%
- inhibition at 1 µM [4]: 29.1%

Compound: [2H]C([2H])(CCN1CC[C@H]2[C@@H](C1)c1cccc3c1N2CC(=O)N3)Oc1ccc(F)cc1 [Example 7, (6bR,10aS)-8-(3,3-dideuterio-3-(4-fluorophenoxy)propyl)-6b,7,8,9,10,10a-hexahydro-1H-pyrido[3′,4′:4,5]pyrrolo[1,2,3-de]quinoxalin-2(3H)-one]
- inhibition at 0.1 µM [1]: 34.8%
- inhibition at 0.3 µM [2]: 53.3%
- inhibition at 0.01 µM [3]: 63.5%
- inhibition at 1 µM [4]: 31.1%

Compound: [2H]c1c([2H])c(OC([2H])([2H])C([2H])([2H])C([2H])([2H])N2CC[C@H]3[C@@H](C2)c2cccc4c2N3C([2H])([2H])C(=O)N4)c([2H])c([2H])c1F [Example 8, (6bR,10aS)-1,1-dideuterio-8-(1,1,2,2,3,3-hexadeuterio-3-(2,3,5,6-tetradeuterio-4-fluorophenoxy)propyl)-6b,7,8,9,10,10a-hexahydro-1H-pyrido[3′,4′:4,5]pyrrolo[1,2,3-de]quinoxalin-2(3H)-one]
- plasma concentration [5]: BLQ
- AUC ([6]; po, 10 mg/kg): 3390 ng·h/mL
- Cmax ([6]; po, 10 mg/kg): 68.4 ng/mL
- Tmax ([6]; po, 10 mg/kg): 6 h
- concentration at 0.033 h ([6]; po, 10 mg/kg): 1.3 ng/mL
- concentration at 0.083 h ([6]; po, 10 mg/kg): 8.6 ng/mL
- concentration at 0.5 h ([6]; po, 10 mg/kg): 45.8 ng/mL
- concentration at 1 h ([6]; po, 10 mg/kg): 62.4 ng/mL
- concentration at 2 h ([6]; po, 10 mg/kg): 133 ng/mL
- concentration at 6 h ([6]; po, 10 mg/kg): 245 ng/mL
- concentration at 8 h ([6]; po, 10 mg/kg): 187 ng/mL
- concentration at 12 h ([6]; po, 10 mg/kg): 181 ng/mL
- concentration at 24 h ([6]; po, 10 mg/kg): 3.3 ng/mL
- concentration at […] ([6]; po, 10 mg/kg): 46.7 ng/mL
- AUC ([6]; sc, 3 mg/kg): 494 ng·h/mL
- Cmax ([6]; sc, 3 mg/kg): 78.9 ng/mL
- Tmax ([6]; sc, 3 mg/kg): 1 h
- concentration at 0.033 h ([6]; sc, 3 mg/kg): 5.7 ng/mL
- concentration at 0.083 h ([6]; sc, 3 mg/kg): 25.7 ng/mL
- concentration at 0.5 h ([6]; sc, 3 mg/kg): 76.4 ng/mL
- concentration at 1 h ([6]; sc, 3 mg/kg): 78.9 ng/mL
- concentration at 2 h ([6]; sc, 3 mg/kg): 62.9 ng/mL
- concentration at 6 h ([6]; sc, 3 mg/kg): 14.1 ng/mL
- concentration at 8 h ([6]; sc, 3 mg/kg): 6.5 ng/mL
- concentration at 12 h ([6]; sc, 3 mg/kg): 4.1 ng/mL
- concentration at 24 h ([6]; sc, 3 mg/kg): 2.1 ng/mL
- concentration at 48 h ([6]; sc, 3 mg/kg): 2.4 ng/mL
- concentration at 72 h ([6]; sc, 3 mg/kg): 1.4 ng/mL
- concentration at […] ([6]; sc, 3 mg/kg): 46 ng/mL

Compound: [2H]C1([2H])C(=O)Nc2cccc3c2N1[C@H]1CCN(C([2H])([2H])C([2H])([2H])C([2H])([2H])Oc2ccc(F)cc2)C[C@@H]31 [Example 9, (6bR,10aS)-1,1-dideuterio-8-(1,1,2,2,3,3-hexadeuterio-3-(4-fluorophenoxy)-propyl)-6b,7,8,9,10,10a-hexahydro-1H-pyrido[3′,4′:4,5]pyrrolo[1,2,3-de]quinoxalin-2(3H)-one]
- inhibition at 0.1 µM [1]: 35.2%
- inhibition at 0.3 µM [2]: 49.6%
- inhibition at 0.01 µM [3]: 60.1%
- inhibition at 1 µM [4]: 28.4%

Compound: O=C1CN2c3c(cccc3[C@@H]3CN(CCCOc4ccc(F)cc4)CC[C@@H]32)N1 [Formula A]
- early phase acute pain response and late phase delayed inflammatory response [7]: dose-dependently attenuates both the early phase acute pain response and the late phase delayed inflammatory response
- EC50 blocking DOI-induced head twitch [8]: 0.44 mg/kg, p.o.
- inhibition at 0.1 µM [1]: 43.4%
- effect on ERK2 phosphorylation [9]: marginal effects
- effect on GluR1 phosphorylation [9]: marginal effects
- effect on NR2B phosphorylation [9]: neither the compound of Formula A nor the compound of Formula B has a significant effect
- effect on TH phosphorylation [9]: neither the compound of Formula A nor the compound of Formula B has a significant effect
- inhibition at 0.3 µM [2]: 53.6%
- inhibition at 0.01 µM [3]: 63%
- inhibition at 1 µM [4]: 33.4%

Compound: O=C1CN2c3c(cccc3[C@@H]3CN(CCCC(=O)c4ccc(F)cc4)CC[C@@H]32)N1 [Formula B, 4-((6bR,10aS)-2-oxo-2,3,6b,9,10,10a-hexahydro-1H,7H-pyrido[3′,4′:4,5]pyrrolo[1,2,3-de]quinoxalin-8-yl)-1-(4-fluoro-phenyl)-butan-1-one]
- EC50 blocking DOI-induced head twitch [8]: 0.23 mg/kg, p.o.
- effect on ERK2 phosphorylation [9]: marginal effects
- effect on GluR1 phosphorylation [9]: marginal effects
- effect on NR2B phosphorylation [9]: neither the compound of Formula A nor the compound of Formula B has a significant effect
- effect on TH phosphorylation [9]: neither the compound of Formula A nor the compound of Formula B has a significant effect

Compound: Cc1cccc(C#Cc2ccccc2)n1 [MPEP, 2-methyl-6-(phenylethynyl)pyridine]
- Marbles Buried [10]: 0.2

Compound: CN1CC[C@]23c4c5ccc(O)c4O[C@H]2[C@@H](O)C=C[C@H]3[C@H]1C5 [Morphine, reference compound]
- tolerance during repeated dosing [11]: clear signs of tolerance and dependence
- physical dependence upon cessation of dosing [11]: clear signs of tolerance and dependence

Compound: O=C(CCCN1CCC(O)(c2ccc(Cl)cc2)CC1)c1ccc(F)cc1 [haloperidol]
- increase in TH phosphorylation [9]: 400-500%

Compound: (6bR,10aS)-8-(1,1,3,3-d4-3-(4-fluorophenoxy)propyl)-6b,7,8,9,10,10a-hexahydro-1H-pyrido[3′,4′:4,5]pyrrolo[1,2,3-de]quinoxalin-2(3H)-one [Example 3]
- tolerance during repeated dosing [11]: does not produce tolerance
- physical dependence upon cessation of dosing [11]: not to produce a syndrome of physical dependence
